Reference: the supplement of paper PMC11414989

Assays:
Conditions in all cases: exposure window: 6 hpf to 120 hpf, static, assay age: 120 hpf (5 dpf)
[1] = tested on: Danio rerio larvae (Tropical 5D); experiment: mean distance moved of exposed larvae, dark phase (µm per frame (1/25 s)); higher = more movement
Summary of the method: (§1)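 Tropical 5D wild-type zebrafish embryos, one per well of 96-well plates with at least 7 per concentration, were statically exposed to nominal chemical concentrations (e.g. 0.01 and 74.8 uM) from 6 to 120 hpf. Larvae with any morphological abnormality were excluded. At 120 hpf, movement in a Zebrabox (6 min dark, then three 3 min light/3 min dark cycles) was tracked with Ethovision XT v.11. Each value is the mean movement per phase of the second cycle, with same-plate control means given.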

[2] = tested on: Danio rerio larvae (Tropical 5D); experiment: mean distance moved of exposed larvae, light phase (µm per frame (1/25 s)); higher = more movement
Summary of the method: as §1

[3] = tested on: Danio rerio larvae (Tropical 5D); experiment: mean angular velocity of exposed larvae, light phase (angular velocity (unit not stated)); higher = more movement
Summary of the method: as §1

[4] = tested on: Danio rerio larvae (Tropical 5D); experiment: mean angular velocity of exposed larvae, dark phase (angular velocity (unit not stated)); higher = more movement
Summary of the method: as §1

## O=S(=O)(O)C(F)(F)C(F)(F)C(F)(F)C(F)(F)C(F)(F)C(F)(F)F [Perfluorohexanesulfonic acid]
[1]; 0.015 µM
  mean distance moved of exposed larvae: 11.6
[1]; 0.046 µM
  mean distance moved of exposed larvae: 20.4
[1]; 0.14 µM
  mean distance moved of exposed larvae: 13.8
[1]; 0.41 µM
  mean distance moved of exposed larvae: 17.2
[1]; 1.23 µM
  mean distance moved of exposed larvae: 23
[1]; 3.7 µM
  mean distance moved of exposed larvae: 22.9
[1]; 11.1 µM
  mean distance moved of exposed larvae: 25.2
[1]; 33.3 µM
  mean distance moved of exposed larvae: 8.39
[1]; 66.5 µM
  mean distance moved of exposed larvae: 3.78
[1]; 100 µM
  mean distance moved of exposed larvae: 3.15
[2]; 0.015 µM
  mean distance moved of exposed larvae: 2.17
[2]; 0.046 µM
  mean distance moved of exposed larvae: 2.46
[2]; 0.14 µM
  mean distance moved of exposed larvae: 1.98
[2]; 0.41 µM
  mean distance moved of exposed larvae: 2.2
[2]; 1.23 µM
  mean distance moved of exposed larvae: 3.86
[2]; 3.7 µM
  mean distance moved of exposed larvae: 3.31
[2]; 11.1 µM
  mean distance moved of exposed larvae: 4.59
[2]; 33.3 µM
  mean distance moved of exposed larvae: 8.09
[2]; 66.5 µM
  mean distance moved of exposed larvae: 3.27
[2]; 100 µM
  mean distance moved of exposed larvae: 3.18
[3]; 0.015 µM
  mean angular velocity of exposed larvae: 0.178
[3]; 0.046 µM
  mean angular velocity of exposed larvae: 0.0902
[3]; 0.14 µM
  mean angular velocity of exposed larvae: 0.121
[3]; 0.41 µM
  mean angular velocity of exposed larvae: 0.123
[3]; 1.23 µM
  mean angular velocity of exposed larvae: 0.25
[3]; 3.7 µM
  mean angular velocity of exposed larvae: 0.171
[3]; 11.1 µM
  mean angular velocity of exposed larvae: 0.153
[3]; 33.3 µM
  mean angular velocity of exposed larvae: 0.351
[3]; 66.5 µM
  mean angular velocity of exposed larvae: 0.241
[3]; 100 µM
  mean angular velocity of exposed larvae: 0.114
[4]; 0.015 µM
  mean angular velocity of exposed larvae: 0.475
[4]; 0.046 µM
  mean angular velocity of exposed larvae: 0.762
[4]; 0.14 µM
  mean angular velocity of exposed larvae: 0.609
[4]; 0.41 µM
  mean angular velocity of exposed larvae: 0.788
[4]; 1.23 µM
  mean angular velocity of exposed larvae: 0.884
[4]; 3.7 µM
  mean angular velocity of exposed larvae: 0.738
[4]; 11.1 µM
  mean angular velocity of exposed larvae: 0.954
[4]; 33.3 µM
  mean angular velocity of exposed larvae: 0.358
[4]; 66.5 µM
  mean angular velocity of exposed larvae: 0.271
[4]; 100 µM
  mean angular velocity of exposed larvae: 0.173

## O=P(O)(O)C(F)(F)C(F)(F)C(F)(F)C(F)(F)C(F)(F)C(F)(F)F [Perfluorohexylphosphonic acid]
[1]; 0.25 µM
  mean distance moved of exposed larvae: 24.1
[2]; 0.25 µM
  mean distance moved of exposed larvae: 5.18
[3]; 0.25 µM
  mean angular velocity of exposed larvae: 0.148
[4]; 0.25 µM
  mean angular velocity of exposed larvae: 0.788

## O=P(O)(O)C(F)(F)C(F)(F)C(F)(F)C(F)(F)C(F)(F)C(F)(F)C(F)(F)C(F)(F)F [Perfluorooctylphosphonic acid]
[1]; 0.25 µM
  mean distance moved of exposed larvae: 29.9
[2]; 0.25 µM
  mean distance moved of exposed larvae: 10.3
[3]; 0.25 µM
  mean angular velocity of exposed larvae: 0.308
[4]; 0.25 µM
  mean angular velocity of exposed larvae: 0.959

## O=S(=O)(O)C(F)(F)C(F)(F)C(F)(F)C(F)(F)F [Potassium perfluoro-1-butanesulfonate]
[1]; 0.25 µM
  mean distance moved of exposed larvae: 30.9
[2]; 0.25 µM
  mean distance moved of exposed larvae: 1.73
[3]; 0.25 µM
  mean angular velocity of exposed larvae: 0.0624
[4]; 0.25 µM
  mean angular velocity of exposed larvae: 1.11

## O=S(=O)(O)CCC(F)(F)C(F)(F)C(F)(F)C(F)(F)F [Sodium 1H,1H,2H,2H-perfluorohexane sulfonate(4:2)]
[1]; 0.25 µM
  mean distance moved of exposed larvae: 44.7
[2]; 0.25 µM
  mean distance moved of exposed larvae: 4.72
[3]; 0.25 µM
  mean angular velocity of exposed larvae: 0.152
[4]; 0.25 µM
  mean angular velocity of exposed larvae: 1.24

## O=S(=O)(O)C(F)(F)C(F)(F)C(F)(F)C(F)(F)C(F)(F)C(F)(F)C(F)(F)C(F)(F)Cl [Sodium 8-chloroperfluoro-1-octanesulfonate]
[1]; 0.25 µM
  mean distance moved of exposed larvae: 28.8
[2]; 0.25 µM
  mean distance moved of exposed larvae: 2.63
[3]; 0.25 µM
  mean angular velocity of exposed larvae: 0.0987
[4]; 0.25 µM
  mean angular velocity of exposed larvae: 0.945
